Patent US20120053197A1, “TRICYCLIC PYRIDINE DERIVATIVES, MEDICAMENTS CONTAINING SUCH COMPOUNDS, THEIR USE AND PROCESS FOR THEIR PREPARATION” (BOEHRINGER INGELHEIM INTERNATIONAL GMBH, priority 2010, published 2012)

Target: T1, recombinant human CETP (Homo sapiens, UniProt P11597)
T1 construct: made in house; host or cells: CHO cells (protein secreted into conditioned medium)
T1 sequence (P11597 18-493): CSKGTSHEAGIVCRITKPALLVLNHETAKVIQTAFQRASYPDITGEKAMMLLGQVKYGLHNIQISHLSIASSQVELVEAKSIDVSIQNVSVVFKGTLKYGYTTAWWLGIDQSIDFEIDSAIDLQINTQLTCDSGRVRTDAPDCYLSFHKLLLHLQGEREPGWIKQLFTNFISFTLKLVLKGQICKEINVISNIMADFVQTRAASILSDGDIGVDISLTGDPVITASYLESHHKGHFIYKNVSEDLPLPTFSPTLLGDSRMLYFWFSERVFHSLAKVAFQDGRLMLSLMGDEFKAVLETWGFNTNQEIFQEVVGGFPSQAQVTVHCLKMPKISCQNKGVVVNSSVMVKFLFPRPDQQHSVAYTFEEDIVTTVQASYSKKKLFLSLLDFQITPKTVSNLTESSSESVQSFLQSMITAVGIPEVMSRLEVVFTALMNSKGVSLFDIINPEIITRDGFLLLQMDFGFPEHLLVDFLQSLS
Test: CETP in vitro fluorometric assay (Roar Biomedical), cholesterol ester transfer from HDL to LDL
Type: biochemical
Conditions: recombinant human CETP from CHO cells; 3 hours at 37° C.; fluorescence ex 485 nm / em 535 nm; compound concentrations between 1 nM and 30 μM; read-out: IC50 values for inhibition of CETP
Procedure: CETP inhibitory activity of compounds of the present invention can be determined in a fluorometric assay puchased from Roar Biomedical, Inc. (New York, N.Y., USA). […] Recombinant human CETP was partially purified from medium conditioned by CETP expressing CHO cells. In a 384 well format 2.5 μl of compound solution in DMSO was combined with 2 μl of donor solution, 2 μl of acceptor solution and 0.8 μl of recombinant human CETP solution in a total volume of 100 μl with assay buffer and incubated for 3 hours at 37° C. The fluorescence intensity was measured at excitation wavelength of 485 nm and emission wavelength of 535 nm. IC50 values are calculated from dose effect curves from compound concentrations between 1 nM and 30 μM.

In the case of `CC(C)(C)c1ccc([C@H]2OC3(CCCC3)c3c2c(C2CCOCC2)nc2c3[C@@H](O)CC(C)(C)[C@H]2O)cc1` [Example 4, (3′R,6′R,9′S)-3′-(4-tert-butylphenyl)-7′,7′-dimethyl-4′-(tetrahydro-2H-pyran-4-yl)-6′,7′,8′,9′-tetrahydro-3′H-spiro[cyclopentane-1,1′-furo[3,4-c]quinoline]-6′,9′-diol], the IC50 is reported as 62 nM.
